Here are results for three compounds from publication PMC10226132, “First-in-Class Selective Inhibitors of the Lysine Acetyltransferase KAT8” (Journal of Medicinal Chemistry, 2023).

In data set [1] the test system is human intestinal epithelial cells (InEpC). Briefly: Proliferation of human intestinal epithelial cells (InEpC). As to conditions: 25, 50, 100, 200 μM, 72 h. The format is cell-based. As for the experimental part: (§1) For analysis of cell proliferation, cells were plated in sextuplicate on 96-well plates in complete media. After 24 h, cells were exposed to different drugs for 72 h. The inhibitory effect of different drugs was assessed by MTT (Sigma, St. Louis, MO, USA) colorimetric assays as previously reported.[67] Aqueous DMSO (0.5% v/v) was used as a control (untreated). The results are reported as “viability of drug-treated cells/viability of untreated cells” × 100 and represent the average ±SD of three independent experiments. IC50 values were using fitted by nonlinear regression using GraphPad Prism 8.0.

Data set [2] is described as follows: HPLC-based analysis of thiol reactivity. The data set is classed as physicochemical. As to conditions: 0.5 mM compound, 2 mM DTT, BME or GSH, pH 7.5, 1, 8 or 24 h at room temperature. As for the experimental part: Compounds 19 and 34 were dissolved in a solution containing 100 mM NaCl and 40 mM Tris·HCl (pH 7.5) with the addition of DTT, BME, or GSH (each at 2 mM) to a final concentration of 0.5 mM and incubated for 1, 8, and 24 h at rt. HPLC analysis was then performed at three wavelengths (254, 286, and 395 nm) under the same conditions described in the “Chemistry” paragraph of the Experimental Section.

In data set [3] the test system is HeLa cells. As to the kind of experiment: MTT cell proliferation assay, HeLa. The data set is classed as cell-based, human. As to conditions: 10, 25, 50, 100 μM, 72 h.
Text: Human commercially available AML U937, breast cancer MCF7, lung adenocarcinoma NCI-H460, H1299 and A-549, glioblastoma U251, B lymphocyte AHH1 cell lines were maintained in compete 10% foetal bovine serum (FBS,) RPMI 1640 (Euroclone, Milan, IT) medium. Human commercially available colon cancer HCT116 and HT29 lines and cervix adenocarcinoma HeLa cells were maintained in compete 10% FBS Dulbecco’s Modified Eagle Medium (DMEM) high glucose medium (Euroclone). L-Glutamine, FBS, and penicillin streptomycin mixture added to medium were obtained from Euroclone. All cell lines were cultured at 37 °C in a humidified atmosphere of 5% CO2:95% air and were tested for mycoplasma contamination routinely by RT-PCR.
as §1

The target of data set [4] is T1, KAT8 (Homo sapiens, UniProt Q9H7Z6).
T1 construct: using the previously purified KAT8 (173–458, 5 nM); 6xHis tag with TEV protease cleavage site (N, cleaved yes); made in house; host or cells: E. coli BL21(DE3)
T1 sequence (Q9H7Z6 173-458): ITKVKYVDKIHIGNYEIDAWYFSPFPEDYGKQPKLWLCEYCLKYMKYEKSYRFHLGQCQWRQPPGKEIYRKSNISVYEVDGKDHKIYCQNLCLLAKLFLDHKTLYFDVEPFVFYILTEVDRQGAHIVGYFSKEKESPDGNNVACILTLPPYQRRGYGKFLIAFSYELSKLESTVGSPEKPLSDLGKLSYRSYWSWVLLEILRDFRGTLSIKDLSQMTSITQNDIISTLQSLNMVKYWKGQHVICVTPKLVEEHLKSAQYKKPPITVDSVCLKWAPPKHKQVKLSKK
As to the kind of experiment: Preincubation and jump-dilution analysis of KAT8 mode of inhibition. The data set is classed as biochemical. As to conditions: for time-dependent inhibition of KAT8 (preincubation assay): 12.5 μM inhibitor, preincubation 5-120 min; for KAT8 activity regained after inhibitor dilution (jump-dilution): 10× IC50 (121 μM for 19, 81 μM for 34), 100-fold dilution, any timepoint 10-240 min. As for the experimental part:
The preincubation assay was performed by incubating KAT8 with the relevant inhibitor (12.5 μM final concentration) for 5, 10, 20, 30, 60, and 120 min at rt. The activity of KAT8 was then measured as described in the “Radioactive KAT8 inhibition assay” paragraph of the Experimental Section. […] Fifty microliters were then incubated at rt for 10, 20, 30, 60, 120, and 240 min, and the mixtures were then processed as described in the “Radioactive KAT8 inhibition assay” paragraph of the Experimental section. Radioactive signal was normalized to the DMSO control reaction incubated for 240 min, converted in percent of KAT8 activity after 240 min, and plotted against each measurement time point. Experiments were performed in biological triplicates.

The subject of data set [5] is HCT116 cells. As to the kind of experiment: Cell cycle analysis by propidium iodide staining, HCT116. As to conditions: 72 h. The data set is classed as cell-based, human. The method, then:
(§2) For the analysis of the progression of cells through cell cycle phases and sub-G1 peak identification, 24 h after plating, cells were treated with the different compounds. After 72 h, both floating and adherent cells were collected and fixed with cold 70% ethanol. At least 24 h after fixation, cells were incubated with 0.025 mg/mL Propidium Iodide for 15 min at room temperature and analyzed. For Annexin V analysis, 24 h after plating, cells were treated with 50 and 100 μM of the compounds. In the case of chloroquine experiments, 10 μM chloroquine (Sigma-Aldrich, A9165) was added 30 min before compounds. 72 h after treatment, both floating and adherent cells were collected and stained with an Annexin V-FITC apoptosis detection kit (ENZO #ALX-850-020-KI). Samples were incubated 15 min in the dark at rt, and 10,000 events were then analyzed.

Data set [6] concerns the target T1, KAT8. Briefly: SPR-based KAT8 binding assay. As to conditions: immobilized KAT8, 25 °C, read-out: equilibrium dissociation constant (KD). The method, then:
SPR analyses were performed on a Biacore 3000 optical biosensor (GE Healthcare) equipped with a research-grade CM5 sensor chip. KAT8 was immobilized (30 μg/mL in 10 mM sodium acetate, pH 4.5) at a flow rate of 10 μL/min by using a standard amine-coupling protocol to obtain a density of 12 kRU. One flow cell was left empty for background subtractions. Both compounds, dissolved in DMSO (100%), were diluted in assay buffer (150 mM NaCl, 10 mM HEPES pH 7.4, 0.005% Tween-20), always maintaining a final 1% DMSO concentration. Binding experiments were performed at 25 °C by using a flow rate of 30 μL/min, with 120 s monitoring of association and 200 s monitoring of dissociation. Regeneration of the surfaces was performed, when necessary, by a 10 s injection of 1 mM NaOH.

The test system of data set [7] is HT29 cells. Briefly: Annexin V/PI analysis, HT29. The format is cell-based, human. As to conditions: 50 and 100 μM, 72 h, compared to control. The method, then: as §2
Data set [8] deals with normal human lung fibroblasts (NHLF). As to the kind of experiment: Proliferation of normal human lung fibroblasts (NHLF). The format is cell-based. As to conditions: 25, 50, 100, 200 μM, 72 h. The method, then:
as §1

Data set [9] has as its system KDAC2, 3, 6, and 8. Set-up: method as in PMID 26718586. As to conditions: cited from earlier work.

Usually Kd stands for the concentration at which binding is half-saturated. Broadly, the IC50 is the midpoint of a concentration-inhibition curve.

On to `CC1=NN(c2ccc(C(=O)O)cc2)C(=O)/C1=C\c1ccc[nH]1` [Compound 19, (Z)-4-(4-((1H-Pyrrol-2-yl)methylene)-3-methyl-5-oxo-4,5-dihydro-1H-pyrazol-1-yl)benzoic Acid], for which the “effect on proliferation of InEpC” value in data set [1] is “did not significantly affect the proliferation”. In addition, the “reaction with thiol-containing nucleophiles (HPLC)” value in data set [2] is reported as “no evidence of reaction”. Further, in data set [3], the “antiproliferative activity in HeLa” value is “a certain degree of antiproliferative activity”. Also, in data set [4], the “time-dependent inhibition of KAT8 (preincubation assay)” value was “did not observe time-dependent inhibition” and the “KAT8 activity regained after inhibitor dilution (jump-dilution)” value is roughly 90%. Further, the “change in the different stages of cell cycle, HCT116” value in data set [5] is recorded as “no significative change”. Moreover, the Kd in data set [6] was found to be 4.94 ± 0.18 µM. The “apoptotic cell population (Annexin V), HT29” value in [7] is “only a slight increase in apoptotic cell population”. Besides, the “effect on proliferation of NHLF” value in data set [8] is listed as “did not significantly affect the proliferation”.

In the case of `O=C(O)c1ccc(N2N=C(c3ccccc3)/C(=C/c3ccc[nH]3)C2=O)cc1` [Compound 34, (Z)-4-(4-((1H-Pyrrol-2-yl)methylene)-5-oxo-3-phenyl-4,5-dihydro-1H-pyrazol-1-yl)benzoic Acid], in data set [1], the “effect on proliferation of InEpC” value is “did not significantly affect the proliferation”. The “reaction with thiol-containing nucleophiles (HPLC)” value in data set [2] was “no evidence of reaction”. The “antiproliferative activity in HeLa” value in [3] is recorded as “a certain degree of antiproliferative activity”. Also, in data set [4], the “time-dependent inhibition of KAT8 (preincubation assay)” value is “did not observe time-dependent inhibition” and the “KAT8 activity regained after inhibitor dilution (jump-dilution)” value is listed as roughly 90%. Besides, in data set [5], the “change in the different stages of cell cycle, HCT116” value is “no significative change”. In data set [6], the Kd was 2.04 ± 0.24 µM. The “apoptotic cell population (Annexin V), HT29” value in data set [7] is “only a slight increase in apoptotic cell population”. Further, the “effect on proliferation of NHLF” value in data set [8] is on record as “did not significantly affect the proliferation”.

`CC1=NN(c2ccc(C(=O)O)cc2)C(=O)/C1=C\c1ccc(-c2cc(C)c(C)cc2[N+](=O)[O-])o1` [VII (C646), reference compound]: the IC50 in data set [9] was 7 to 25 µM.
